From patent US20030236218A1, “Aryl phosphate derivatives of d4T with selective activity against adenovirus and HIV” (priority 2002, published 2003)
In brackets after ≈: the same amount, converted by molar mass. Marks after values point to notes of the source that are not given here.

Legend:
[1] = Pharmacokinetic studies in mice, intravenous administration; type: in vivo, Balb/c mice; details: plasma analyte = label, after i.v. 100 mg/kg compound 113
Method: Female Balb/c mice (6-8 weeks old) from Taconic (Germantown, N.Y.) were housed in a controlled environment (12-hours of light/12-hours of dark, 22±1° C., 60±10% relative humidity), which is fully accredited by the USDA. All rodents were housed in microisolator cages (Lab Products, Inc., NJ) containing autoclaved bedding. The mice were allowed free access to autoclaved pellet food and tap water throughout the study.
Blood samples (˜500 μL) were obtained from the ocular venous plexus by retro-orbital venipuncture at 0, 2, 5, 10, 15, 30, 45, 60, 120, 240 and 360 minutes after intravenous injection.
All collected blood samples were heparinized and centrifuged at 7000×g for 5 minutes to separate the plasma fraction from the whole blood. The plasma samples were then processed immediately using the extraction procedure described above.
Pharmacokinetic modeling and parameter calculations were carried out using the WinNonlin Professional Version 3.0 (Pharsight, Inc., Mountain, Calif.) pharmacokinetics software (Chen et al., Pharm. Res., 16, 1003 (1999); Chen et al., Pharm. Res., 16, 117 (1999); Chen et al., J. Clin. Pharmacol., 39, 1248 (1999); Uckun et al., Clin. Cancer Res., 5, 2954 (1999); and Uckun et al., J. Pharmacol. Exp. Ther., 291, 1301 (1999)). An appropriate model was chosen on the basis of the lowest sum of weighted squared residuals, the lowest Schwartz Criterion (SC), the lowest Akaike's Information Criterion (AIC) value, the lowest standard errors of the fitted parameters, and the dispersion of the residuals. The elimination half-life was estimated by linear regression analysis of the terminal phase of the plasma concentration-time profile. The area under the concentration-time curve (AUC) was calculated according to the linear trapezoidal rule between the first sampling time (0 hours) and the last sampling time plus C/k, where C is the concentration of the last sampling and k is the elimination rate constant. The systemic clearance (CL) was determined by dividing the dose by the AUC. The metabolic clearance of the parent drug, the formation clearance of the metabolite, the clearance elimination of the metabolite, and the distribution clearance of the metabolite were estimated by simultaneous fitting of the concentration of parent drug and metabolites as a function of time curve to pharmacokinetic models (see FIGS. 7A & 8A) specified as a system of differential equations (Gabrielsson & Weiner, Phamacokinetic/Phamacodynamic Data Analysis: Concepts and Applications, Swedish Pharmaceutical Press (1997)).

[2] = Octanol/water partition coefficient, shake flask method; type: physicochemical; details: 4 hours at room temperature
Method: HPLC purification was achieved using a reverse-phase Lichrospher column (250×4 mm, Hewlett-Packard, RP-18, Cat. #79925) and an isocratic flow (1 ml/minute) consisting of water (70%) and acetonitrile (30%). Melting points were determined using a Melt John's apparatus and are uncorrected. Column chromatography was performed using silica gel obtained from Baker Company. The octanol/water partition coefficient was determined by the shake flask method. The phosphoramidate analogs were added to 2 ml of water and 2 ml of octanol in a glass vial. The mixture was shaken for 4 hours at room temperature. The two phases were carefully separated and filtered through a Millipore filter and analyzed by HPLC. The partition coefficient was calculated using the ratio of the area under the curve for octanol and water, respectively.

[3] = Hydrolysis rate in alkali conditions; type: physicochemical
Method: (§1) Statistical analysis. Each drug was tested at 6-7 different concentrations ranging from 0.0001 μM to 100 μM. Each assay was set up in triplicate wells and repeated 1-3 times. An IC50 value was calculated from each set of triplicate wells using nonlinear regression modeling of the exponential form of the linearized equation (Statview, SAS Institute, Inc., Cary, N.C.). Hydrolysis rates were determined by fitting single exponential decay equations to the disappearance of the compound in alkali conditions (all R^2 values greater than 0.85). The IC50 values obtained were correlated to the log transformed hydrolysis rate constants by fitting a linear model (JMP Software, SAS Institute Inc., Cary, N.C.). P-values less than 0.05 were deemed significant.

[4] = test system: adenovirus strain Type 5, strain adenoid 75; experiment: Adenovirus plaque formation assay in skin fibroblast cell line SF; type: cell-based, human adenovirus; details: Adenovirus Type 5, 7 days, ± s.e., read-out: IC50, ADV-induced plaque formation
From the text: Virus stocks. The HIV-1 strain used in this study was HTLV-IIIB (Uckun et al., 1998 Antimicro. Agents and Chemother., 42:383-388). The non-HIV viruses included in the present study were the gancyclovir-sensitive cytomegalovirus (CMV) strain AD169 (ATCC VR-538); acyclovir-sensitive herpes simplex virus (HSV) Type I strain HF (ATCC VR-260); acyclovir-sensitive HSV Type II strain G (ATCC VR-734); adenovirus strain Type 5, strain adenoid 75 (ATCC VR-5); enterovirus strain, ECHO 30, strain Bastianni (ATCC VR-322); and respiratory syncytial virus (RSV), strain Long (ATCC VR-26).
Plaque formation assays. Plaque assays were used to examine the activity of the compounds against non-HIV viruses. The skin fibroblast cell line SF (ATCC CRL-2097) was used as a target for AD169, Adenovirus Type 5. […] cell line (ATCC CCL-81) was used as a target for HSV HF and G. The HEP-2 cell line (ATCC CCL-23) was used as a target for the RSV strain Long. These cell lines were cultured at 1×10^5 cells/well in 24-well (all but ECHO 30-infected SF) or 6-well (ECHO 30-infected SF) tissue culture plates with 0.9% methylcellulose or 0.4% SeaPlaque agarose semisolid support. Minimum Essential Medium (MEM) with Earle's salts (Gibco), L-glutamine, non-essential amino acids, 2% heat-inactivated fetal bovine serum, 1% penicillin/streptomycin, and 0.05% gentamicin served as the culture medium. The incubation times were 3 days for HF, G, ECHO 30, and Long; and 7 days for AD169 and Adenovirus Type 5. Plaque counting was performed with a 20X dissecting microscope for AD169, Type 5, ECHO 30, and RSV Long, and with a light box for HF and G. The fixative agent was crystal violet for all viruses, except for the CMV strain AD169 for which methylene blue was used. Percent inhibition of plaque formation was calculated by comparing the plaque numbers from the test substance-treated infected cells with the plaque numbers from untreated infected cells (i.e., virus controls). The IC50 values were determined using the Statview statistics program (SAS Institute, Inc., Cary, N.C.).
as §1, with “Hydrolysis rates were determined by fitting single exponential decay equations to the disappearance of the compound in alkali conditions (all R^2 values greater than 0.85).” left out
The skin fibroblast cell line SF (ATCC CRL-2097) was used as a target for AD169, Adenovirus Type 5, and ECHO 30; the VERO cell line (ATCC CCL-81) was used as a target for HF and G; and the HEP-2 cell line (ATCC CCL-23) was used as target for the RSV strain Long. Results are expressed as the average IC50 values in μM. Stavudine (STV) was included as a control.

Solubility = type: physicochemical
[5] = estimate from composite curve of pooled data

Structure (SMILES) | Vss [1, 5] [L/kg] | Vss ([1]; mean ± S.E.M) | Oct/Water (log P) [2] | Hydrolysis Rate [3] [min⁻¹] | IC50 [4] [nM] | Solubility (Solubility) [µg/mL]
COC(=O)[C@H](C)NP(=O)(OC[C@@H]1C=C[C@H](n2cc(C)c(=O)[nH]c2=O)O1)Oc1ccc(Br)cc1 (stereo partly shown) | 0.8521 | (1005.3 ± 134.0) ml/kg |  |  |  | 
COC(=O)[C@H](C)NP(=O)(OCC1C=CC(n2cc(C)c(=O)[nH]c2=O)O1)Oc1ccc(Br)cc1 (stereo partly shown) | 0.7311 | (791.8 ± 113.1) ml/kg |  |  |  | 
COC(=O)[C@H](C)NP(=O)(OCC1C=CC(n2cc(C)c(=O)[nH]c2=O)O1)Oc1ccc(OC)cc1 (stereo partly shown) [Compound 598, 5′-[4-Methoxyphenyl methoxylaninylphosphate]-2′, 3′-didehydro-3′-deoxy thymidine] |  |  | 0.39 | 0.0102 | 555 ± 115 | 11900 (≈ 24 mM)
COC(=O)[C@H](C)NP(=O)(OCC1C=CC(n2cc(C)c(=O)[nH]c2=O)O1)Oc1cccc(N(C)C)c1 (stereo partly shown) [Compound 599, 5′-[3-Dimethylaminophenyl methoxylaninylphosphate]-2′, 3′-didehydro-3′-deoxy thymidine] |  |  | 0.76 | 0.0058 | 230 ± 20 | 18000 (≈ 35.4 mM)
COC(=O)C(C)NP(=O)(OCC1C=CC(n2cc(C)c(=O)[nH]c2=O)O1)Oc1c(OC)cccc1OC (stereo not shown) [Compound 600, 5′-[2,6-Dimethoxyphenylmethoxyalaninyl phosphate]-2′, 3′-didehydro-3′-deoxy thymidine] |  |  | 0.40 | 0.0029 | 290 ± 120 | 43600
COC(=O)[C@H](C)NP(=O)(OCC1C=CC(n2cc(C)c(=O)[nH]c2=O)O1)Oc1ccc(C#N)cc1 (stereo partly shown) [Compound 601, 5′-[4-Cyanophenylmethoxyalaninyl phosphate]-2′, 3′-didehydro-3′-deoxy thymidine] |  |  | 0.05* | 0.1199 | 575 ± 5 | 4000
COC(=O)C(C)NP(=O)(OCC1C=CC(n2cc(C)c(=O)[nH]c2=O)O1)Oc1cccc(Br)c1 (stereo not shown) [Compound 602, 5′-[3-Bromophenylmethoxyalaninyl phosphate]-2′, 3′-didehydro-3′-deoxy thymidine] |  |  |  | 0.0338 | 235 ± 145 | 
COC(=O)C(C)NP(=O)(OCC1C=CC(n2cc(C)c(=O)[nH]c2=O)O1)Oc1ccc(Br)cc1Cl (stereo not shown) [Compound 603, 5′-[4-Bromo-2-chlorophenylmethoxyalaninyl phosphate]-2′, 3′-didehydro-3′-deoxy thymidine] |  |  | 1.81 | 0.1500 | 80 ± 10 | 1800
COC(=O)[C@H](C)NP(=O)(OCC1C=CC(n2cc(C)c(=O)[nH]c2=O)O1)Oc1ccc(F)cc1 (stereo partly shown) [Compound 604, 5′-[4-Flurophenylmethoxyalaninyl phosphate]-2′, 3′-didehydro-3′-deoxy thymidine] |  |  | 0.54 | 0.0117 | 100 ± 40 | 7500
COC(=O)C(C)NP(=O)(OCC1C=CC(n2cc(C)c(=O)[nH]c2=O)O1)Oc1ccccc1Br (stereo not shown) [Compound 605, 5′-[2-Bromophenylmethoxyalaninyl phosphate]-2′, 3′-didehydro-3′-deoxy thymidine] |  |  | 0.95 | 0.0336 | 38.5 ± 22 | 4200
COC(=O)C(C)NP(=O)(OCC1C=CC(n2cc(C)c(=O)[nH]c2=O)O1)Oc1ccccc1Cl (stereo not shown) [Compound 606, 5′-[2-Chlorophenylmethoxyalaninyl phosphate]-2′, 3′-didehydro-3′-deoxy thymidine] |  |  | 0.84 | 0.0370 | 28.5 ± 12 | 7300
COC(=O)[C@H](C)NP(=O)(OCC1C=CC(n2cc(C)c(=O)[nH]c2=O)O1)Oc1ccccc1 (stereo partly shown) [Compound 607, 5′-[Phenyl methoxylaninylphosphate]-2′, 3′-didehydro-3′-deoxy thymidine] |  |  | 0.38 | 0.0082 | 57.5 ± 23 | 44700 (≈ 96 mM)
COC(=O)C(C)NP(=O)(OCC1C=CC(n2cc(C)c(=O)[nH]c2=O)O1)Oc1cc(Cl)ccc1Cl (stereo not shown) [Compound 608, 5′-[2,5-Dichlorophenylmethoxyalaninyl phosphate]-2′, 3′-didehydro-3′-deoxy thymidine] |  |  | 1.41 | 0.1840 | 33 ± 17 | 3700
